Experimental data as given in patent US20170368018A1, “USE OF ELLAGIC ACID DIHYDRATE IN PHARMACEUTICAL FORMULATIONS TO REGULATE BLOOD GLUCOSE LEVELS” (HALO LIFE SCIENCE, LLC, priority 2014, published 2017).
Entries after “also recorded” stand apart in the source; their conditions may differ.

What was measured:
[1] = Estimated saturation in 100% DMSO; type: physicochemical
Method: General Procedure. For Examples 2 through 7, all test compounds of interest were initially dissolved in 100% DMSO. Estimated saturation occurred at approximately 4 mM for ellagic acid dihydrate. The saturated solution was diluted 1:10 in 1× PBS; creating a 100× stock solution of 400 μM ellagic acid dihydrate. Working concentrations (1×), 4 μM, and more dilute concentrations of ellagic acid dihydrate were created by 1:10 dilutions into 0.1% DMSO. The resulting six dilutions ranged from 4 μM to 0.04 nM. Dose curves were analyzed using either Harmony software on the Operetta (Perkin Elmer) or Excel (Microsoft) for flow cytometry, which was performed on a BD Accuri (BD Biosciences).

glucose oxidase reaction = glucose oxidase reaction (Aspergillus niger, UniProt P13006); experiment: Direct interaction with glucose, glucose oxidase based glucometer on serum; type: biochemical; settings: incubated with serum at room temperature for five minutes or overnight at 37° C.
Method: Ellagic acid dihydrate was analyzed for direct interaction with glucose. A glucose oxidase based glucometer was used to measure serum glucose. Ellagic acid dihydrate was incubated with serum at room temperature for five minutes or overnight at 37° C. Upon testing the mixture, no inhibition of the glucose oxidase reaction was observed. Ellagic acid dihydrate is not believed to directly interact with glucose.

MEF cells = experiment: Glucose uptake, 2-NBDG labeling, flow cytometry, MEFs; type: cell-based, mouse
Method: Cellular assays were performed using mouse myoblast C2C12 cells and MEF cells. […] Increased glucose uptake was indicated as increasing signal of 2-NBDG ([…]) in cells. Glucose uptake assays were carried out in a final incubation volume of 50 μl consisting of, 2-NBDG), (100 μM) in 1× Phosphate Buffered Saline w/Ca+, Mg+ (PBS++). The same buffer was used for washing cells. Insulin was used as a positive control. All testing compounds were prepared in […] and diluted 1:100 for a final concentration of 0.1% DMSO (vehicle). Cells were culture to 70-90% confluence and then washed twice with PBS++. Cells were incubated for 30 minutes at 37° C. in PBS++. Nuclear stain, HCS CellMask stain (blue, Invitrogen), and/or testing compounds (ellagic acid dihydrate, insulin, or vehicle) were added. Cells were incubated for 30 min at 37° C. Cells were washed twice with PBS++and incubated with 2-NBDG for 10 minutes. Cells were washed thrice with PBS++and then imaged in PBS++. Alternatively, the final PBS wash was removed and cells were incubated with Accutase (Invitrogen) for 10 min at 37° C., neutralized with 10% FBS in 1× PBS, and analyzed by flow cytometry. An additional experiment was performed to measure glucose uptake in C2C12 cells exposed to metformin, insulin and ellagic acid dihydrate 2 (batch 2). FIG. 5C. Glucose uptake in ellagic acid dihydrate treated cell culture was measured and compared to glucose uptake under insulin or ellagic acid treatment. […] Flow cytometry results were run in triplicate with 1000 cells per batch.

[2] = test system: GLUT4-GFP in mouse myoblast C2C12 cells; experiment: Localization of glucose transporter GLUT4-GFP, time-lapse confocal microscopy; type: cell-based; settings: C2C12, 4000 nM
Method: Induction of glucose transporter, GLUT-4, in ellagic acid dihydrate treated cell cultures was studied. Cellular assays were performed using mouse myoblast C2C12 cells. The cells were infected with a fusion glucose transporter 4 green fluorescent protein (GLUT4-GFP). This protein allows the visualization of GLUT4 by imaging the GFP under fluorescent time-lapse microscopy. Frames were compiled to produce time-lapse images of cellular changes with no treatment or treatment with insulin. The localization of glucose transporter (GLUT4-GFP) was performed in final incubation volume of 505 μL, consisting of 500 μL of Hank's Buffer (Invitrogen) and 5 μl of tested compounds. Insulin was used as positive controls and vehicle (0.1% DMSO) as the negative control. All test compounds were prepared in 10% DMSO and diluted 1:100 for a final concentration of 0.1% DMSO (vehicle). The cells were rinsed in Hank's Buffer thrice and then incubated in Hank's Buffer at 37° C. for one hour. The test compounds were added (ellagic acid dihydrate, insulin, or vehicle) and the cells were imaged using laser-confocal microscopy (Leica TCS SP5 X) with FITC fluorescent filters to determine changes in GLUT4-GFP localization. Time-lapse images (TIF) were collected and post-processed using Image-J (NIH) for video construction.

Sequence of glucose oxidase reaction (P13006 17-605): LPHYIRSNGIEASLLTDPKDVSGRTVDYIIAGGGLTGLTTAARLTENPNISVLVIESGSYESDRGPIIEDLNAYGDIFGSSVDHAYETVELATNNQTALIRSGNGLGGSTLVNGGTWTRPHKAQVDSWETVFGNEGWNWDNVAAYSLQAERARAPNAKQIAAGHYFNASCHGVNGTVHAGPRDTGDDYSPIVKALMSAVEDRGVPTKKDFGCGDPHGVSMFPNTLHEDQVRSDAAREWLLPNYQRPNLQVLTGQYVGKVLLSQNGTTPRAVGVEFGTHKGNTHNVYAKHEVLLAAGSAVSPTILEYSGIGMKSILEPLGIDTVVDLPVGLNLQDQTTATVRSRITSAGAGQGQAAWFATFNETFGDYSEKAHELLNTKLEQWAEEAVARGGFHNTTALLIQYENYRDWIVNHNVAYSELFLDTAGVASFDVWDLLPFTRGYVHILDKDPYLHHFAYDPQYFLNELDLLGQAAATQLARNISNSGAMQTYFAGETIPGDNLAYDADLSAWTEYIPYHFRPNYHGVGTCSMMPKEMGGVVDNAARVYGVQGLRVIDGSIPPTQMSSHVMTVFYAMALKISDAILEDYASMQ

Question: Which results are given for O.O.O=c1oc2c(O)c(O)cc3c(=O)oc4c(O)c(O)cc1c4c23 [ellagic acid dihydrate]?
Answer: Estimated saturation [1]: approximately 4 mM; inhibition of the glucose oxidase reaction (glucose oxidase reaction): no inhibition; increased glucose uptake relative to vehicle treated cells (MEF cells; 400 nM exposure, fibroblasts, FIG. 4B): 47%; dose effect for increasing glucose uptake (MEF cells; MEFs, flow cytometry, 4 μM-0.04 nM): showed a dose effect; increase in glucose uptake compared with ellagic acid or insulin treatment (MEF cells; MEFs, flow cytometry, Example 5, FIG. 6): significantly greater increase in glucose uptake; glucose uptake (2-NBDG signal) relative to vehicle (MEF cells; MEFs, flow cytometry, FIG. 4A): significantly greater than vehicle treated; glucose uptake relative to insulin (MEF cells; fibroblasts, at most concentrations tested, significant at 4 nM-4 μM, dihydrate): significantly more glucose uptake relative to insulin; also recorded: exceeded the uptake induced by insulin; glucose uptake per unit dose (MEF cells; in vitro conditions, summary statement): increase in glucose uptake per unit dose; GLUT4-GFP around the cell nucleus [2]: decrease in nuclear GLUT4-GFP; ruffling of filopodia at the surface of the cell [2]: rapid ruffling of filopodia; time course of GLUT4-GFP and membrane changes compared with insulin [2]: slightly delayed
